Data set [1] deals with EphB4. To be noted: cell culture; cited from earlier work. On the procedure:
An explanation for the discrepancy in the potency of the peptide in biochemical and cell culture assays could be that TNYL-RAW is susceptible to degradation by proteases present in cell culture medium. For example, trypsin-like proteases are l ... || Despite the low nanomolar EphB4 binding affinity of TNYL-RAW, the very short half-life of the peptide greatly limits its effectiveness, as exemplified by the high concentrations (10–100 µM) needed to inhibit EphB4-ephrin-B2 interaction in cell culture, [33], [36], [37]. We used three strategies to improve TNYL-RAW stability in cell culture and circulating half-life: fusion with Fc, complexation with streptavidin and covalent coupling to 40 KDa polymeric PEG molecules. Fusion with Fc has been successfully used to improve the stability and pharmacokinetic properties of numerous prot ...

The target in data set [2] is T1, EphB4 (Mus musculus, UniProt P54761).
T1 construct: tyrosine phosphorylation of endogenous EphB4 expressed in B16 melanoma cells; host or cells: B16-F10-luc-G5 melanoma cells
T1 sequence (P54761 16-987): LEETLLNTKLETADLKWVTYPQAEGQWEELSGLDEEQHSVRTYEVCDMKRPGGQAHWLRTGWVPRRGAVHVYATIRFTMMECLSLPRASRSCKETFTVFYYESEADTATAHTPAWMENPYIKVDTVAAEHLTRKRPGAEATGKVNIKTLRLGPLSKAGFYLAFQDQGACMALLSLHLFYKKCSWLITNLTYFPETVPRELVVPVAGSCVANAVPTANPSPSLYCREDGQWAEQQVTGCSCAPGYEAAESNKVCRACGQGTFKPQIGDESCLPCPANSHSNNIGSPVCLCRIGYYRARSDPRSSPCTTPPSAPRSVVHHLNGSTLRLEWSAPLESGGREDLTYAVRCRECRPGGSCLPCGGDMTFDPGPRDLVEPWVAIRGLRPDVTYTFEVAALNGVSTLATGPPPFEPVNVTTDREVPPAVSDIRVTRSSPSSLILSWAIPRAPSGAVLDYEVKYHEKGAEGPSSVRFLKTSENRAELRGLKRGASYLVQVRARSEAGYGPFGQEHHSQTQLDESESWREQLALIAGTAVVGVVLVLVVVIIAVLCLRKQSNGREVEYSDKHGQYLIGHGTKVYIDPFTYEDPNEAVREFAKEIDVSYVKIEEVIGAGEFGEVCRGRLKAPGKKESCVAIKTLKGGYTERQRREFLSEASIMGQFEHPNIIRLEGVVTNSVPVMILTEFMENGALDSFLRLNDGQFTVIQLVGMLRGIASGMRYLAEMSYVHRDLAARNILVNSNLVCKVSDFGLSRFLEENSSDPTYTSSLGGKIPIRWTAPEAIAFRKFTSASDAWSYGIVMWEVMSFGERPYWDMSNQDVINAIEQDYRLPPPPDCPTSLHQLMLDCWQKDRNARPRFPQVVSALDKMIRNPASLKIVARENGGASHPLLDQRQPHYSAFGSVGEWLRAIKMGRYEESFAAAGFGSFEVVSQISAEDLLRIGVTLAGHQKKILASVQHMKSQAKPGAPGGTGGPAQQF
Briefly: Ephrin-B2-induced EphB4 tyrosine phosphorylation in B16 melanoma cells (immunoprecipitation/immunoblot). To be noted: 24 hours pretreatment, Figure 4A. The data set is classed as cell-based. How it is done: B16-F10-luc-G5 melanoma cells, which endogenously express EphB4, were serum starved for 1–3 hours in Eagle's MEM/EBSS containing 0.5% FBS and incubated for 15 min or 24 hours with different concentrations of PEG-TNYL-RAW. The cells were then stimulated for 20 min with 1.5 µg/ml ephrin-B2 Fc, which had been preclustered with a 3 fold excess of an anti-Fc antibody, in the continued presence of the peptide. HUVECs, EMCs or a 1∶1 mixture of the two cell types were plated for 20 hours in complete medium in the presence of PEG or PEG-TNYL-RAW. Medium 200 was used for HUVECs and HUVECs and EMCs co-cultures, DMEM was used for EMCs. The cells were lysed in modified RIPA buffer (1% Triton X-100, 1% Na deoxycholate; 0.1% SDS; 20 mM Tris; 150 mM NaCl; 1 mM EDTA) containing 10 µM NaF, 1 µM sodium pervanadate and protease inhibitors. Protein concentrations were measured using the BCA protein assay kit (Pierce Biotechnology, Rockford, IL). For immunoprecipitations, cell lysates were incubated with 20 µg of an anti-EphB4 antibody made to a GST fusion protein of the EphB4 SAM domain and carboxy-terminal tail immobilized on GammaBind Sepharose beads (GE Healthcare Life Sciences). […]
For orientation: A western blot detects proteins with antibodies after separation by electrophoresis.

Data set [3] can be described thus: Peptide stability in cell culture medium / conditioned medium (ELISA of functional peptide). Format: in vitro ADME. On the procedure: PC3 prostate cancer cells were grown in RPMI 1640 medium (Mediatech, Inc, Herndon, VA) with 10% fetal bovine serum (FBS) (Hyclone, Logan, UT), penicillin and streptomycin. B16-F10-luc-G5 melanoma cells (Caliper Life Sciences, Hopkinton, MA) were grown in Eagle's MEM with Earle's Balanced Salts (EBSS) (Hyclone, Logan, UT) supplemented with 10% FBS, non essential amino acids (Hyclone, Logan, UT), L-glutamine, sodium pyruvate (Hyclone, Logan, UT), MEM vitamin solution (Life Technologies-Invitrogen), penicillin and streptomycin (Omega Scientific, Tarzana, CA). HUVECs (Cascade Biologics, Portland, OG) were grown in Medium 200 supplemented with low serum growth supplements (Cascade Biologics), 10% FBS, penicillin and streptomycin, and fungizone (Omega Scientific, Tarzana, CA). Rat EMCs were grown in DMEM (Mediatech, Inc, Herndon, VA) supplemented with 10% FBS, penicillin and streptomycin. The different modified forms of TNYL-RAW at a concentration of 25 nM were added to fresh medium or culture medium conditioned by the cells for 1–4 days. The culture medium was collected after different time periods and diluted 1∶10 in ELISA wells. The amount of intact TNYL-RAW peptide remaining was measured by using the ELISA assays described above for measurement of binding affinity. In some experiments, the peptide was incubated at 37°C with PC3 cell conditioned medium collected from the cells in the absence or in the presence of protease inhibitors (10 µg/ml aprotinin, 5 µg/ml pepstatin, 10 µg/ml leupeptin and 0.75 mM or phenylmethylsulfonylfluoride (PMSF)).
In general terms: In an ELISA, binding on a coated surface is turned into a signal by an enzyme label.

The structures appear in SMILES notation. Square brackets hold non-standard residues; d marks the D form. Peptide text beside a SMILES is read from it. * marks the point of attachment. Biotin = O=C1N[C@H]2[C@H](CS[C@H]2CCCCC(=O)*)N1; Ahx = NCCCCCC(=O)O

On to `CC[C@H](C)[C@H](NC(=O)[C@@H]1CCCN1C(=O)CNC(=O)[C@H](CC(N)=O)NC(=O)[C@@H]1CCCN1C(=O)[C@H](CO)NC(=O)[C@H](Cc1ccccc1)NC(=O)[C@H](CC(C)C)NC(=O)[C@H](Cc1ccc(O)cc1)NC(=O)[C@H](CC(N)=O)NC(=O)[C@@H](N)[C@@H](C)O)C(=O)N[C@@H](C)C(=O)N[C@@H](CCCNC(=N)N)C(=O)N[C@@H](C)C(=O)N[C@@H](Cc1c[nH]c2ccccc12)C(=O)NCCCCCC(=O)N[C@@H](CCCCNC(=O)CCCC[C@@H]1SC[C@@H]2NC(=O)N[C@@H]21)C(N)=O` [TNYL-RAW] (H-TNYLFSPNGPIARAW[Ahx]K(Biotin)-NH2; N-terminus and C-terminus assumed), for which the “Peptide concentrations needed to substantially inhibit ephrin-B2-induced EphB4 tyrosine phosphorylation and downstream effects / EphB4-ephrin-B2 interaction in cultured cells” value in the data set with EphB4 [1] is 10 to 100 µM. In addition, the “Inhibitory activity on EphB4 phosphorylation after 24 hours of incubation with cells” value at EphB4 [2] is reported as “ineffective”. In addition, the “Peptide loss in culture medium of other cell types” value in data set [3] (B16 melanoma cells, HUVECs, EMCs (Figure S1), C6 glioma cells and BPH1 prostate epithelial cells (data not shown), biotinylated TNYL-RAW, ELISA) is on record as “Rapid TNYL-RAW loss”. In addition, the “Half-life in PC3 cell culture medium” value in data set [3] (biotinylated TNYL-RAW with PC3 prostate cancer cells grown in the same medium for several days, depends on cell density and time in medium, ELISA capture on EphB4 Fc, streptavidin-HRP, Figure 1A) was “less than an hour to several hours”. The “Half-life with cells in fresh culture medium versus medium used for 3 days” value in data set [3] (biotinylated TNYL-RAW, PC3 cells, medium freshly replaced before adding peptide, ELISA, Figure 1A) was “had a longer half-life”. Moreover, the “Peptide loss in PC3 cell conditioned medium with protease inhibitors” value in data set [3] (conditioned medium without cells, 37°C, aprotinin, leupeptin, pepstatin and PMSF, ELISA, Figure 1B) was “blocked by a mixture of protease inhibitors”.

The values above are taken from article PMC3237458, “PEGylation Potentiates the Effectiveness of an Antagonistic Peptide That Targets the EphB4 Receptor with Nanomolar Affinity” (PLoS ONE, 2011).
